Laboratory results as given in patent US20060045906A1, “Compositions and methods for activating protein synthesis and deactivating catabolic processes in skeletal muscle” (priority 2004, published 2006).
“And” between values parts separate entries of the source, which are not always exact repeats. Identical values can stand only once.

Experiments:
serum insulin = test: Serum insulin concentration and area under the concentration time curve after oral challenge (nasogastric) in healthy male volunteers; format: in vivo, human
Description: (§1) Measurement of creatine levels in the plasma preferably involves removing venous blood from the dorsal surface of a heated hand immediately before and 20, 40, and 60 min after the ingestion of a supplement. In addition, urine may be collected before and on the day of ingestion of a supplement. Plasma and urine creatine may be measured using high performance liquid chromatography and serum insulin was measured using a radioimmunoassay technique, an example of which is described in U.S. Pat. No. 5,968,900, which is fully incorporated herein by reference.
Aim: The aim of this study was to identify a supplement that would optimize the augmentation of Cr retention after its supplementation, by increasing the insulinotropic effect, whilst consuming a lower carbohydrate load.
Study design: Randomized, double-blind, placebo controlled, cross-over design.
Volunteers: 7 healthy male volunteers. All volunteers were eligible to participate after satisfactory results from the medical screening.
(§2) Protocol: The volunteers were required to attend to the lab for 3 trials. Each consisted of an afternoon arm, and a morning arm. Each arm lasted for approximately 4 hours. The volunteers were asked to relax on a bed. A baseline blood sample was taken. Each solution was administered via a nasogastric tube (mean time of administration was approximately 7 minutes). Half-way through the administration, the stop clock was started. After the three hour protocol, a second solution was administered. The third solution was administered in the following morning arm of the trial. Each trial was separated by at least 12 days.
(§3) Each solution was administered via a nasogastric tube three times over 24 hours. A total amount of 15 g or Cr was administered.
Blood sampling: Blood samples were collected for three hours after administration of the solution. Eleven blood samples obtained (including baseline sample). For the first hour after administration of the solution, a blood sample was obtained at 15 minute intervals. During the second and third hour of sampling, the intervals were increased to 20 minutes. Approximately 3 ml of blood was transferred to a lithium heparin containing tube and a further 3 ml were allowed to clot for plasma Cr and creatinine (Crn), and serum insulin analysis respectively.
Statistical analysis: A two-way repeated measure ANOVA statistical test was used. Significance was set at p<0.05. When a significant difference was observed, Fisher's post hoc analysis was performed in order to locate the difference. All individual results are included in the appendix.

[1] = human, in vivo
Description: as §1, §2, §3
Blood sampling: Blood samples were collected for three hours after administration of the solution. […]

[2] = Urinary creatine excretion (24 h collections: 0-24, 24-48, 0-48 h) after administration of the solutions; format: in vivo, human; conditions: p<0.05
Description: as §1
Urinary Creatine Content:
Three 24 h hour urinary collections were obtained from each volunteer for each arm of the study. The first collection (baseline) was completed prior to administration of the solution. The second collection (0-24 h) was initiated immediately after the administration of the first solution, until 24 h post administration. […] The volume of the urine excreted was recorded and a 5 ml sample was frozen at −20° C. until analysis. The samples were analyzed for Cr and Crn.
To calculate the total creatine (TCr) the Cr and Crn were added together. The TCr increase was calculated by subtracting the baseline TCr from the 0-24 h excretion and/or the 24-48 h excretion. The 0-48 h content was calculated by adding the 0-24 h TCr with the 24-48 h TCr increase in excretion. […]

[3] = test system: skeletal muscle total creatine; conditions: cited from earlier work

Compound: CN(CC(=O)O)C(=N)N [C, creatine]
- serum insulin concentration compared to PAC (serum insulin; FIG. 1, first oral challenge, from 15-140 min): significantly lower
- serum insulin concentration compared to CHO (serum insulin; FIG. 1, first oral challenge, from 15-160 min): significantly lower
- serum insulin concentration compared to CHO and PAC (serum insulin; FIG. 2, third oral challenge, from 15-160 min): significantly lower
- serum insulin AUC compared to CHO and PAC (serum insulin; FIG. 3, 80 min following the first oral challenge, p=0.02): significantly lower
- serum insulin AUC compared to CHO and PAC (serum insulin; FIG. 4, 180 min following the first oral challenge, p=0.015): significantly lower
- serum insulin AUC compared to CHO and PAC (serum insulin; FIG. 5, 80 min following the third oral challenge, p<0.001): significantly lower
- serum insulin AUC compared to CHO and PAC (serum insulin; FIG. 6, 180 min following the first oral challenge (so in the source), p<0.001): significantly lower
- insulin area under the time curve response (serum insulin; first oral challenge, 0-80 min (as headed), individual subject): −235 mU/l/min and −127 mU/l/min and −112 mU/l/min and −166 mU/l/min and −146 mU/l/min and −714 mU/l/min and −566 mU/l/min
- insulin area under the time curve response (serum insulin; first oral challenge, 0-80 min (as headed), mean of 7 subjects): −295 mU/l/min
- insulin area under the time curve response (serum insulin; first oral challenge, 0-180 min (as headed), individual subject): −32 mU/l/min and −48 mU/l/min and −50 mU/l/min and 21 mU/l/min and −11 mU/l/min and −299 mU/l/min and −186 mU/l/min
- insulin area under the time curve response (serum insulin; first oral challenge, 0-180 min (as headed), mean of 7 subjects): −86 mU/l/min
- serum insulin concentration (serum insulin; first oral challenge, 45 min, individual subject): 9.02 mU/l and 7.85 mU/l and 9.58 mU/l and 10.16 mU/l and 9.61 mU/l and 9.34 mU/l and 11.85 mU/l
- serum insulin concentration (serum insulin; first oral challenge, 45 min, mean of 7 subjects): 9.63 mU/l
- serum insulin concentration (serum insulin; first oral challenge, 60 min, individual subject): 9.17 mU/l and 7.54 mU/l and 9.74 mU/l and 8.51 mU/l
- insulin area under the time curve response (serum insulin; third oral challenge, 0-80 min, individual subject): 10 mU/l/min (2×) and −7 mU/l/min and −23 mU/l/min and 132 mU/l/min and −34 mU/l/min and −18 mU/l/min
- insulin area under the time curve response (serum insulin; third oral challenge, 0-80 min, mean of 7 subjects): 10 mU/l/min
- insulin area under the time curve response (serum insulin; third oral challenge, 0-180 min, individual subject): 274 mU/l/min (2×) and −63 mU/l/min and −109 mU/l/min and 195 mU/l/min and 1406 mU/l/min and −99 mU/l/min
- insulin area under the time curve response (serum insulin; third oral challenge, 0-180 min, mean of 7 subjects): 268 mU/l/min
- serum insulin concentration (serum insulin; third oral challenge, 0 min, individual subject): 8.91 mU/l (2×) and 8.31 mU/l and 10.38 mU/l and 9.64 mU/l and 10.31 mU/l and 8.65 mU/l
- serum insulin concentration (serum insulin; third oral challenge, 0 min, mean of 7 subjects): 9.30 mU/l
- serum insulin concentration (serum insulin; third oral challenge, 15 min, individual subject): 8.94 mU/l (2×) and 7.78 mU/l and 10.23 mU/l and 9.84 mU/l and 10.29 mU/l and 11.08 mU/l
- serum insulin concentration (serum insulin; third oral challenge, 15 min, mean of 7 subjects): 9.59 mU/l
- serum insulin concentration (serum insulin; third oral challenge, 30 min, individual subject): 9.44 mU/l (2×) and 7.90 mU/l and 10.92 mU/l and 10.89 mU/l and 9.80 mU/l and 11.61 mU/l
- serum insulin concentration (serum insulin; third oral challenge, 30 min, mean of 7 subjects): 10.00 mU/l
- serum insulin concentration (serum insulin; third oral challenge, 45 min, individual subject): 8.87 mU/l (2×) and 7.24 mU/l and 9.56 mU/l and 9.07 mU/l and 10.07 mU/l and 9.32 mU/l
- serum insulin concentration (serum insulin; third oral challenge, 45 min, mean of 7 subjects): 9.00 mU/l
- serum insulin concentration (serum insulin; third oral challenge, 60 min, individual subject): 8.92 mU/l (2×) and 7.99 mU/l and 10.03 mU/l and 8.61 mU/l and 9.69 mU/l and 10.81 mU/l
- serum insulin concentration (serum insulin; third oral challenge, 60 min, mean of 7 subjects): 9.28 mU/l
- serum insulin concentration (serum insulin; third oral challenge, 80 min, individual subject): 9.06 mU/l (2×) and 8.54 mU/l and 9.79 mU/l and 9.45 mU/l and 10.22 mU/l and 8.93 mU/l
- serum insulin concentration (serum insulin; third oral challenge, 80 min, mean of 7 subjects): 9.29 mU/l
- serum insulin concentration (serum insulin; third oral challenge, 100 min, individual subject): 8.54 mU/l (2×) and 8.56 mU/l and 9.59 mU/l (2×) and 9.34 mU/l and 9.38 mU/l
- serum insulin concentration (serum insulin; third oral challenge, 100 min, mean of 7 subjects): 9.08 mU/l
- serum insulin concentration (serum insulin; third oral challenge, 120 min, individual subject): 8.76 mU/l (2×) and 8.20 mU/l and 10.07 mU/l and 8.48 mU/l and 10.27 mU/l and 9.10 mU/l
- serum insulin concentration (serum insulin; third oral challenge, 120 min, mean of 7 subjects): 9.09 mU/l
- serum insulin concentration (serum insulin; third oral challenge, 140 min, individual subject): 8.29 mU/l (2×) and 8.44 mU/l and 8.57 mU/l and 8.55 mU/l and 8.56 mU/l and 9.20 mU/l
- serum insulin concentration (serum insulin; third oral challenge, 140 min, mean of 7 subjects): 8.56 mU/l
- serum insulin concentration (serum insulin; third oral challenge, 160 min, individual subject): 8.69 mU/l (2×) and 8.34 mU/l and 8.66 mU/l and 10.01 mU/l and 9.02 mU/l and 9.73 mU/l
- serum insulin concentration (serum insulin; third oral challenge, 160 min, mean of 7 subjects): 9.02 mU/l
- serum insulin concentration (serum insulin; third oral challenge, 180 min, individual subject): 8.58 mU/l (3×) and 8.61 mU/l and 8.56 mU/l and 9.43 mU/l and 9.04 mU/l
- serum insulin concentration (serum insulin; third oral challenge, 180 min, mean of 7 subjects): 8.77 mU/l
- plasma creatine AUC compared to CHO and PAC [1]: significantly greater
- urinary creatine content compared to CHO and PAC ([2]; FIG. 11, 0-24 h): significantly greater
- urinary creatine content compared to CHO and PAC ([2]; FIG. 13, 0-48 h following supplementation): significantly greater

Compound: CN(CC(=O)O)C(=N)N [carbohydrate free creatine, creatine]
- increase of total muscle creatine ([3]; 5 g creatine four times a day for 5 days): about 20 mmol/kg dm

Compound: CN(CC(=O)O)C(=N)N [creatine, N-methyl-N-guanyl glycine]
- increase of muscle total creatine content, on average ([3]; 20 g/day for 5 days): 20%
- increase in human skeletal muscle total creatine (phosphocreatine and free creatine) stores ([3]; dietary creatine supplementation): 20-50%
